Experimental data published in patent publication US10844049B2, “GLP-1R agonists and uses thereof” (QILU REGOR THERAPEUTICS INC., priority 2018, dated 2020).
pEC50: −log10 of the molar value.

How the values were obtained:
GLP1R [1] = molecular target: T1, GLP1R (Homo sapiens, UniProt P43220); assay: GLP1R cAMP assay, CHO cells stably expressing human GLP-1R; type: cell-based; details: CHO cells stably expressing GLP-1R, read-out: CHO cAMP stable EC50
Method in brief: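 Cells expressing human GLP-1R (1000 per well) incubated with compound for 30 min at 37°C in DPBS with 500 μM IBMX and 0.1% BSA, final DMSO 0.5%. cAMP measured by competitive HTRF after 60 min at room temperature, interpolated from a standard curve.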

GLP1R [2] = molecular target: T1, GLP1R; assay: β-Arrestin-mediated GLP1R internalization assay (PathHunter engineered U2OS cells); type: cell-based; design: host or cells: PathHunter engineered U2OS cells; details: averaged Bmax, percentage of control GLP-1 (7-37), highest concentration tested
Source text: A similar assay can also be used to assess the extent of signal attenuation due to GLP-1R internalization (the β-Arrestin Internalization Assay). In this assay, activated GLP1R Internalization cells were engineered to co-express an untagged GLP1R, Enzyme Acceptor (EA) tagged β-Arrestin, and a ProLink™ (PK) tag localized to the endosomes. Activation of the GLP1R induces β-Arrestin recruitment, which leads to internalization of the Receptor/Arrestin-EA complex in PK-tagged endosomes. This forces complementation of the two β-galactosidase enzyme fragments (EA and PK) to form a functional enzyme that hydrolyzes substrate to generate a chemiluminescent signal. These cells have been modified to prevent long term propagation and expansion using a proprietary compound that has no apparent effect on assay performance.
Specifically, PathHunter engineered U2OS cells from the assay kit (Cat #93-0724E3CP0L) were plated at a density of 2000 cells/20 μL/well in a 384-well white/clear bottom plates (Greiner Cat #781098). Frozen cells were quickly thawed and 10 mL of cell plating medium (provided by the kit) was added to thawed cells. Cells were stored in a 37° C. incubator and kept for approximately 48 hours until ready for the assay.
Reference and test compounds were dissolved in 100% DMSO. 5× concentration of an agonist was prepared in serum free DMEM (Thermo Cat #11965). 5 μL of this solution was added to 20 μL cell medium in assay plate for a final top concentration of 10 μM. Plates were incubated at 37° C. for 180 min.
Following 180 min incubation, detection reagents were made up by combining 1 part Galacton Star Substrate with 5 parts Emerald II™ Solution, and 19 parts of PathHunter Cell Assay Buffer, respectively. 12.5 μL detection reagent was added to each well. The plates were then incubated at room temperature for 60 min. Plates were then read on Envision for 0.1 sec/well.
EC50 determinations were made from agonist dose-response curves analyzed with a curve fitting program using a 4-parameter logistic dose response equation.

T1 sequence (P43220 24-463): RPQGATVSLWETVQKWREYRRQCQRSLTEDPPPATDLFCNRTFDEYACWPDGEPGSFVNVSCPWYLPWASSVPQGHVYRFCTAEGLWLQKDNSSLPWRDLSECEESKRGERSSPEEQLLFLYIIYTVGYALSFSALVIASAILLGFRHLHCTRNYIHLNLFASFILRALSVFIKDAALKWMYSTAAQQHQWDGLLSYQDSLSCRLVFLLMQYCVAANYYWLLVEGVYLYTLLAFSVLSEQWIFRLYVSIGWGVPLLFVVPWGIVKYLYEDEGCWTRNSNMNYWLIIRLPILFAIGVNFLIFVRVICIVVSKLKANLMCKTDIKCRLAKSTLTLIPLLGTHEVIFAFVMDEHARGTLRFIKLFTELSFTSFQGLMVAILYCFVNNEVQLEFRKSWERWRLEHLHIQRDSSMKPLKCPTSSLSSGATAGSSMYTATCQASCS

N#Cc1ccc(COc2cccc(C3=CCN(Cc4nc5ccc(C(=O)O)cc5n4C[C@@H]4CCO4)CC3)n2)c(F)c1 [Compound 19, (S)-2-((4-(6-(4-cyano-2-fluorobenzyloxy)pyridin-2-yl)-5,6-dihydropyridin-1(2H)-yl)methyl)-1-(oxetan-2-ylmethyl)-1 h-benzo[d]imidazole-6-carboxylic add]
pEC50 (GLP1R [1]): ≥ 7.82 | Bmax (POC) (GLP1R [2]): 20.1 POC

N#Cc1ccc(COc2cccc(C3=CCN(Cc4nc5ccc(C(=O)O)nc5n4C[C@@H]4CCO4)CC3)n2)c(F)c1 [Compound 225, (S)-2-((6-((4-cyano-2-fluorobenzyl)oxy)-3′,6′-dihydro-[2,4′-bipyridin]-1′(2′H)-yl)methyl)-3-(oxetan-2-ylmethyl)-3H-imidazo[4,5-b]pyridine-5-carboxylic add]
pEC50 (GLP1R [1]): ≥ 7.82 | Bmax (POC) (GLP1R [2]): 24.0 ± 6.70 POC

N#Cc1ccc(COc2cncc(C3=CCN(Cc4nc5ccc(C(=O)O)cc5n4C[C@@H]4CCO4)CC3)n2)c(F)c1 [Compound 23, (S)-2-((4-(6-(4-cyano-2-fluorobenzyloxy)pyrazin-2-yl)-5,6-dihydropyridin-1(2H)-yl)methyl)-1-(oxetan-2-ylmethyl)-1 h-benzo[d]imidazole-6-carboxylic acid]
pEC50 (GLP1R [1]): ≥ 6.00 | Bmax (POC) (GLP1R [2]): 8.92 ± 3.70 POC
